In PMC8534050, “Discovery of a Potent and Highly Isoform-Selective Inhibitor of the Neglected Ribosomal Protein S6 Kinase Beta 2 (S6K2)” (Cancers, 2021):

What was measured:
S6K1 = molecular target: T1, S6K1 (Homo sapiens, UniProt P23443); assay: HotSpot kinase assay (Reaction Biology); type: biochemical
T1 construct: purchased Reaction Biology Corp
Procedure: (§1) The provided IC50 values were measured using the HotSpot^TM Kinase Profiling assay and conducted at Reaction Biology Corp. in their facilities in Malvern, PA, USA.

FGFR4 = molecular target: T2, FGFR4 (Homo sapiens, UniProt P22455); assay: HotSpot kinase assay (Reaction Biology); type: biochemical; conditions: five-point singlicate
T2 construct: purchased Reaction Biology Corp
Procedure: as §1

TTK = molecular target: T3, TTK (Homo sapiens, UniProt P33981); assay: HotSpot kinase assay (Reaction Biology); type: biochemical; conditions: five-point singlicate, max 5 μM
T3 construct: purchased Reaction Biology Corp
Procedure: as §1

MAPKAPK3 = molecular target: T4, MAPKAPK3 (Homo sapiens, UniProt Q16644); assay: HotSpot kinase assay (Reaction Biology); type: biochemical; conditions: five-point singlicate, max 5 μM
T4 construct: purchased Reaction Biology Corp
T4 sequence (Q16644 whole entry): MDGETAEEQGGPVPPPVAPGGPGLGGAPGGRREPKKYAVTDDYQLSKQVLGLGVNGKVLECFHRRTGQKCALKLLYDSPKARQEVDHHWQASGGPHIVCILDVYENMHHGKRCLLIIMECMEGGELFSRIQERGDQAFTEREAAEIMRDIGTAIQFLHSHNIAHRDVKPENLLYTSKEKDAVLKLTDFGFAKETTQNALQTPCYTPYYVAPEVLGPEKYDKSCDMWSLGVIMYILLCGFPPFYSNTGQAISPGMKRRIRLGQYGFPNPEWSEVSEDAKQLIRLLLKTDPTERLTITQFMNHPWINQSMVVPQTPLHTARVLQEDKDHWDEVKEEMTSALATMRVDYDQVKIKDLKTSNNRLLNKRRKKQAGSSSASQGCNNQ
Procedure: as §1

S6K2 = molecular target: T5, S6K2 (Homo sapiens, UniProt Q9UBS0); assay: HotSpot kinase assay (Reaction Biology); type: biochemical; conditions: apparent IC50; five-point; compound 2 triplicate, ± standard deviation
T5 construct: purchased Reaction Biology Corp
T5 sequence (Q9UBS0 whole entry): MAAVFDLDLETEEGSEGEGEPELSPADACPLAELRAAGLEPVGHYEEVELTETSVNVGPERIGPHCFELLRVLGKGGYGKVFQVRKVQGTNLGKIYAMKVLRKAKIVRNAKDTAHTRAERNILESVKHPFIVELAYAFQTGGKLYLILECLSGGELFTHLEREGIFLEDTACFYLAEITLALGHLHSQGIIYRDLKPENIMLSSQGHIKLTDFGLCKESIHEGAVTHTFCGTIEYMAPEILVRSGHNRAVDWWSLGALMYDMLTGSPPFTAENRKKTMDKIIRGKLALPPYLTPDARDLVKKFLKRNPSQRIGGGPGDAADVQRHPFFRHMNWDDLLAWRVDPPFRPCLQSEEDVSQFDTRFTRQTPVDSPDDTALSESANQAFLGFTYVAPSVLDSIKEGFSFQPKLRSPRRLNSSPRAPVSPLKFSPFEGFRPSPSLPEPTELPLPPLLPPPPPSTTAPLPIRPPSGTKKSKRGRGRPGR
Procedure: as §1

MAPKAPK2 = molecular target: T6, MAPKAPK2 (Homo sapiens, UniProt P49137); assay: HotSpot kinase assay (Reaction Biology); type: biochemical; conditions: five-point singlicate, max 5 μM
T6 construct: purchased in-house DSF (thermal shift) panel per Fedorov et al; IC50 follow-up at Reaction Biology Corp
T6 sequence (P49137 whole entry): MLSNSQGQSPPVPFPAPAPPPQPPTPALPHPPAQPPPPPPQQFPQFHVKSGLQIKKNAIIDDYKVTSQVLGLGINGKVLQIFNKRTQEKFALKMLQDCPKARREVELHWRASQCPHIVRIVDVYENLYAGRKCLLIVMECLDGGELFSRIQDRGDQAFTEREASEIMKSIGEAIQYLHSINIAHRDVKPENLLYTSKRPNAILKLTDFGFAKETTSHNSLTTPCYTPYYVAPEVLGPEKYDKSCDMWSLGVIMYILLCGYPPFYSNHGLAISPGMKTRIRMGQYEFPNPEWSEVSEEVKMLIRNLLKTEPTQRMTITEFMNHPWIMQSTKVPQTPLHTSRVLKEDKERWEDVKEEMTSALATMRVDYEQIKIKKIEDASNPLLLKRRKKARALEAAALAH
Procedure: as §1

MERTK = molecular target: T7, MERTK (Homo sapiens, UniProt Q12866); assay: DSF thermal shift assay; type: binding; conditions: MERTK; inhibitor 10 μM, protein 2 μM; read-out: ΔTm
T7 construct: purchased in-house DSF (thermal shift) panel per Fedorov et al
Procedure: (§2) Differences in the melting temperature (ΔTm) were measured as described by Fedorov et al.. Purified proteins were buffered in 25 mM HEPES (pH 7.5), 500 mM NaCl and were assayed in a 384-well plate with a final protein concentration of 2 μM in 10 μL assay volume. Inhibitors were added to a final concentration of 10 μM using an ECHO 550 acoustic dispenser (Labcyte, San José, CA, USA). As a fluorescence probe, SYPRO-Orange (Molecular Probes, Eugene, OR, USA) was added in a 1:5000 dilution. Filters for excitation and emission were set to 465 nm and 590 nm, respectively. The temperature was increased from 25 °C with 3 °C/min to a final temperature of 95 °C, while scanning, using the QuantStudio5 (Applied Biosystems, Waltham, MA, USA). Data were analyzed through Boltzmann equation in the Protein Thermal Shift software (Applied Biosystems, Waltham, MA, USA). Samples were measured in technical duplicates.

STK10 = molecular target: T8, STK10 (Homo sapiens, UniProt O94804); assay: DSF thermal shift assay; type: binding; conditions: STK10; inhibitor 10 μM, protein 2 μM; read-out: ΔTm
T8 construct: purchased in-house DSF (thermal shift) panel per Fedorov et al
Procedure: as §2

DAPK1 = molecular target: T9, DAPK1 (Homo sapiens, UniProt P53355); assay: DSF thermal shift assay; type: binding; conditions: DAPK1; inhibitor 10 μM, protein 2 μM; read-out: ΔTm
T9 construct: purchased in-house DSF (thermal shift) panel per Fedorov et al
T9 sequence (P53355 whole entry): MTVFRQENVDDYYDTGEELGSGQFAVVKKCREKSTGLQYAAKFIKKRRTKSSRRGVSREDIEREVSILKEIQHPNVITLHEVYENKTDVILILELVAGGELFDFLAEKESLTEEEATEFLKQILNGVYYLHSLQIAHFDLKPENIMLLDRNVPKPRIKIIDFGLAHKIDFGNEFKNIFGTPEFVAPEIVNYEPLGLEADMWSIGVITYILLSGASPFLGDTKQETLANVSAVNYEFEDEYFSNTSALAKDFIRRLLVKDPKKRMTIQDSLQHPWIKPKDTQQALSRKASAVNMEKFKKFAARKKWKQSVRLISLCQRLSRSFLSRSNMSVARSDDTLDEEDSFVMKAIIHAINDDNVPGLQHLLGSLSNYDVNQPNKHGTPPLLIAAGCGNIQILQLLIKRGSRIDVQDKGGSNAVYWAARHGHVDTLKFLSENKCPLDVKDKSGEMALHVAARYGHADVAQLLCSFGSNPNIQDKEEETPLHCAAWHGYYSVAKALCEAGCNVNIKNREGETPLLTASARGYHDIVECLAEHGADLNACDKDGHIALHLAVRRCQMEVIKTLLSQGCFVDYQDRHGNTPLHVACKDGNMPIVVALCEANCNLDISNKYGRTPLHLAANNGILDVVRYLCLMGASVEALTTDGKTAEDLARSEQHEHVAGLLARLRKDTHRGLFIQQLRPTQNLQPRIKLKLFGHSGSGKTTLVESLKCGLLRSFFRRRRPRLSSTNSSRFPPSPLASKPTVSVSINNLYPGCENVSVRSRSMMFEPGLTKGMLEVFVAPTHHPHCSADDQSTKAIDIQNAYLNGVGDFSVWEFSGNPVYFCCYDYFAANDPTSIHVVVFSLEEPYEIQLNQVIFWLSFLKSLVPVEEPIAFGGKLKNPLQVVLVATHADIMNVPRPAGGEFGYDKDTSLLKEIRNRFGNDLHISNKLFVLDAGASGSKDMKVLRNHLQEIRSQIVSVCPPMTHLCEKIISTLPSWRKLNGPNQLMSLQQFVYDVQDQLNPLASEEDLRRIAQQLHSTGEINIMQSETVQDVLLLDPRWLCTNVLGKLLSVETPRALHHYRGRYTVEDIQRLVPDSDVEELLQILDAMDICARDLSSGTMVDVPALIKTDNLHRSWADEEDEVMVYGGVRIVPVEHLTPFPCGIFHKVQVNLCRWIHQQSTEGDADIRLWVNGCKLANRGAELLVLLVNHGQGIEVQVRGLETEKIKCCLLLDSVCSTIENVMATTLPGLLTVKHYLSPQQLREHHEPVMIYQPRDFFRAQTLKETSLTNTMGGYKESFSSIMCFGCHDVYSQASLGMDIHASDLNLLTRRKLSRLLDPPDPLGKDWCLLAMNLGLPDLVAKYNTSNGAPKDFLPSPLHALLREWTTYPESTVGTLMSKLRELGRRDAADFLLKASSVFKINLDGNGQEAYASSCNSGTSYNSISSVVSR
Procedure: as §2

WNK1 = molecular target: T10, WNK1 (Homo sapiens, UniProt Q9H4A3); assay: DSF thermal shift assay; type: binding; conditions: WNK1; inhibitor 10 μM, protein 2 μM; read-out: ΔTm
T10 construct: purchased in-house DSF (thermal shift) panel per Fedorov et al
Procedure: as §2

EPHA7 = molecular target: T11, EPHA7 (Homo sapiens, UniProt Q15375); assay: DSF thermal shift assay; type: binding; conditions: EPHA7; inhibitor 10 μM, protein 2 μM; read-out: ΔTm
T11 construct: purchased in-house DSF (thermal shift) panel per Fedorov et al
T11 sequence (Q15375 28-998): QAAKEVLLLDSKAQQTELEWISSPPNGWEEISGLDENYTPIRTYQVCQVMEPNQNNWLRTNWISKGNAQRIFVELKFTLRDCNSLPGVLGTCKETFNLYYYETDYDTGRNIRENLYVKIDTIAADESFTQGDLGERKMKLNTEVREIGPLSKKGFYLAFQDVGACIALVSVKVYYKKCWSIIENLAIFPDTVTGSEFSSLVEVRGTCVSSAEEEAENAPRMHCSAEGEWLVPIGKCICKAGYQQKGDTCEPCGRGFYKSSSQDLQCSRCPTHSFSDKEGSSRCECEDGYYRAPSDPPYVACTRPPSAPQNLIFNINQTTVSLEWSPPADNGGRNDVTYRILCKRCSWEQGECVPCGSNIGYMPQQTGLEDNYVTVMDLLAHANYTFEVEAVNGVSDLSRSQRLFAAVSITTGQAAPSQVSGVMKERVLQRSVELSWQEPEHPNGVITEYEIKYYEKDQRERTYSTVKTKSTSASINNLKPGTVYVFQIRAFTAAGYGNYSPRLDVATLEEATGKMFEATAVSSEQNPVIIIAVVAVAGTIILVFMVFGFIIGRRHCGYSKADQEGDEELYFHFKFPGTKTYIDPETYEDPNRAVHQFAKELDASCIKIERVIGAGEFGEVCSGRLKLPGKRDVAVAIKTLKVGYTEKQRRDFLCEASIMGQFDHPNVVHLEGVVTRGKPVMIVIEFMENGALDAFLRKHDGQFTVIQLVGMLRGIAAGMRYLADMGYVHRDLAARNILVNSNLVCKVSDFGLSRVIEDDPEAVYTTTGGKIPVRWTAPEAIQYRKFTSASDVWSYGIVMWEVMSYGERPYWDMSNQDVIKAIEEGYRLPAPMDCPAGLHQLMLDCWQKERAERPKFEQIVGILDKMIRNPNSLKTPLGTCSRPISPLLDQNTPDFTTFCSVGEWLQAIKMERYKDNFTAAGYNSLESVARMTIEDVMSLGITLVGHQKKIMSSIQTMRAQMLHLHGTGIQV
Procedure: as §2

STK3 = molecular target: T12, STK3 (Homo sapiens, UniProt Q13188); assay: DSF thermal shift assay; type: binding; conditions: STK3; inhibitor 10 μM, protein 2 μM; read-out: ΔTm
T12 construct: purchased in-house DSF (thermal shift) panel per Fedorov et al
T12 sequence (Q13188 whole entry): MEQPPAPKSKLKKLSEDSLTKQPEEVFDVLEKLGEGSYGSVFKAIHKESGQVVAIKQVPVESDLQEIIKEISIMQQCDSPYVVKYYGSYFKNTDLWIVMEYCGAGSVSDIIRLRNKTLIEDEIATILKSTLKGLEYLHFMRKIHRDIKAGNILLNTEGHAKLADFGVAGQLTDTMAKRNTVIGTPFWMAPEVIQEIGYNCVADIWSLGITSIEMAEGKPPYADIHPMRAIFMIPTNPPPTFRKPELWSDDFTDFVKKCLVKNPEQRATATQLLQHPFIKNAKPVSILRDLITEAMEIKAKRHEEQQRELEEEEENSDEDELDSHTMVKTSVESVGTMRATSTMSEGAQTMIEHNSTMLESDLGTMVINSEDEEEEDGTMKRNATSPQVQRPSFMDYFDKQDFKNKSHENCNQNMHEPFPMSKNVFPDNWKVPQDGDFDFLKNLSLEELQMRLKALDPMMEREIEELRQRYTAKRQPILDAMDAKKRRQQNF
Procedure: as §2

Microsomal stability = type: in vitro ADME, mouse; conditions: 100 μM, NADPH-regenerating system, up to 90 min
Procedure: Pooled liver microsomes from mice (male) were purchased from XenoTech LLC (Sekisui XenoTech LLC, Kansas City, KS, USA). Incubation of compound 2 was made in the presence of an NADPH-regenerating system (5 mM glucose-6-phosphate, 5 U/mL glucose-6-phosphate dehydrogenase, and 1 mM NADP^+). Compound 2 (100 μM), the NADPH-regenerating system, and 4 mM MgCl2⋅6 H2O in 0.1 M Tris buffer (pH 7.4) were preincubated for 5 min at 37 °C and 750 rpm on a shaker. The incubation mix was split into aliquots (50 μL) and the reaction was started by the addition of mouse liver microsomes. The reaction was quenched at selected time points (0, 10, 20, 30, 60, and 90 min) by adding 100 μL internal standard at a concentration of 50 μM in MeCN. The samples were vortexed for 30 s and centrifuged (19,800 relative centrifugal force/4 °C/15 min). The supernatant was directly used for LC-MS analysis. All incubations were conducted in triplicates and a limit of 1% organic solvent was not exceeded. […]
Detection was performed on a Micromass Quattro micro triple quadrupole mass spectrometer (Waters GmbH, Eschborn, Germany) using electrospray ionization in positive mode. […] The data were analyzed using MassLynx 4.1 (Waters Corporation, Milford, MA, USA)

[1] = Nα-acetyl lysine stability assay (HPLC); type: physicochemical; conditions: for half-life: read-out: half-life t1/2 towards Nα-acetyl lysine (converted)
Procedure: (§3) The Nα-acetyl lysine stability assay was performed in analogy to the GSH stability assay by substituting GSH with Nα-acetyl lysine at pH 7.4 and additionally at pH 10.2 to mimic the pKa depression often observed for biologically relevant lysines. PBS-buffer was substituted with a sodium tetraborate buffer (28 mM) for experiments at pH 10.2.
4. Nα-Acetyl Lysine Stability Assay […]
h. The stability towards Nα-acetyl lysine at pH 10.2 was corrected for the slope of the curve of the […]
Figure S11. Nα-acetyl lysine stability assay of compound 2 at pH 7.4 and pH 10.2. Error bars represent the standard deviation of triplicate measurements. AUC: area under the curve of residual starting material 2, t: time in hours.

physchem = conditions: buffer
Procedure: The reaction temperature was chosen to be 40 °C.
Glutathione (GSH) Stability Assay
• 0 min: 40% MeOH, 60% phosphate buffer pH 2.3;
• 20 min: 85% MeOH, 15% phosphate buffer pH 2.3;
• 9 min: 95% MeOH, 5% phosphate buffer pH 2.3;
• 10 min: 95% MeOH, 5% phosphate buffer pH 2.3;

[2] = Aqueous degradation at pH 10.2; type: physicochemical; conditions: sodium tetraborate buffer (28 mM), no nucleophile, read-out: t1/2 of aqueous degradation (converted)
Procedure: as §3
4. Nα-Acetyl Lysine Stability Assay

T1 sequence (P23443 whole entry): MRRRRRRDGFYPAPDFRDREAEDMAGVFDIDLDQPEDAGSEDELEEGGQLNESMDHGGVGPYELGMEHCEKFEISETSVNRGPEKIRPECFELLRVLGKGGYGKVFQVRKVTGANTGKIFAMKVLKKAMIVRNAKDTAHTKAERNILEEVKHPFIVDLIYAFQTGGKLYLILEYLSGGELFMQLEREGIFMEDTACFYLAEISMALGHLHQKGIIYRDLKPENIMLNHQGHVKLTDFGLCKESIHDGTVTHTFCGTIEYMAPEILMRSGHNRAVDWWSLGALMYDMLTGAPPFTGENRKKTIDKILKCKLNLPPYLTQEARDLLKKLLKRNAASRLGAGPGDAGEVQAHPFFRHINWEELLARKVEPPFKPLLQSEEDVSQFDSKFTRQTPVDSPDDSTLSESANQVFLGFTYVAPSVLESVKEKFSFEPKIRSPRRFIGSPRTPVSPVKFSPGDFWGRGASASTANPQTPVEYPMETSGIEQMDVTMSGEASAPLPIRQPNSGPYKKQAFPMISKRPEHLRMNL

IC50 (S6K1; five-point singlicate, max 5 μM): > 5 µM | activity for S6K1 (S6K1; maximum tested compound concentration of 5 μM): inactive | IC50 (FGFR4): 0.216 µM | IC50 (TTK): > 5 µM | IC50 (MAPKAPK3): > 5 µM | IC50 (S6K2): 0.022 ± 0.0016 µM | IC50 (MAPKAPK2): > 5 µM | ΔTm at 10 µM (MERTK): -0.1 °C | ΔTm at 10 µM (STK10): 1.8 °C | ΔTm at 10 µM (DAPK1): -0.5 °C | ΔTm at 10 µM (WNK1): -0.9 °C | ΔTm at 10 µM (EPHA7): 0.5 °C | ΔTm at 10 µM (STK3): -0.2 °C | stability in mouse liver microsomes (Microsomal stability): acceptable stability | half-life ([1]; Nα-acetyl lysine in MeCN/PBS buffer, pH 7.4): 1160 h | half-life ([1]; Nα-acetyl lysine in sodium tetraborate buffer (28 mM), pH 10.2, corrected for aqueous degradation): 27 h | reactivity towards Nα-acetyl lysine ([1]; physiological pH): negligible reactivity | half-life at […] (physchem): 55 h | half-life [2]: 139 h
Compound: CCc1cnc(Nc2nc(Cl)ccc2[N+](=O)[O-])nc1N1CCN(Cc2nc3cc(C(F)(F)F)ccc3[nH]2)CC1 [Compound 2]
